Type in all cases: biochemical
One assay has as its target Pim-1 (Homo sapiens (Human), UniProt P11309). In words: Pim-1 kinase assay. As to conditions: 1 mM ATP, biotin-labeled BAD peptide substrate; read-out: Pim1 IC50. A digest of the protocol: (§1)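 Biotin-BAD peptide ([…]) phosphorylated with 1 mM ATP by 2.5 pM Pim-1 or 1.25 pM Pim-3, 1 h at 25 °C in Tris pH 7.5, MgCl2, DTT buffer. EDTA stop with anti-phospho-BAD (Ser112) antibody and AlphaScreen streptavidin donor/Protein-A acceptor beads; signal read after 1 h dark incubation.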

The target in another assay is Pim-2 (Homo sapiens (Human), UniProt Q9P1W9). The assay is described as follows: Pim-2 kinase assay. As to conditions: 1 mM ATP, fluorescein-labeled CREBtide peptide substrate; read-out: Pim2 IC50. In short, it runs like this: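 TR-FRET assay: 1 nM Pim-2 with 0.05 μM fluorescein-CREBtide and 1 mM ATP in Tris pH 7.5, 5 mM MgCl2, 5 mM DTT, 2 h at 25 °C. EDTA stop, then Tb-anti-pCREB Ser133 antibody for 30 min before reading.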
Sequence of Pim-2 (Q9P1W9 whole entry): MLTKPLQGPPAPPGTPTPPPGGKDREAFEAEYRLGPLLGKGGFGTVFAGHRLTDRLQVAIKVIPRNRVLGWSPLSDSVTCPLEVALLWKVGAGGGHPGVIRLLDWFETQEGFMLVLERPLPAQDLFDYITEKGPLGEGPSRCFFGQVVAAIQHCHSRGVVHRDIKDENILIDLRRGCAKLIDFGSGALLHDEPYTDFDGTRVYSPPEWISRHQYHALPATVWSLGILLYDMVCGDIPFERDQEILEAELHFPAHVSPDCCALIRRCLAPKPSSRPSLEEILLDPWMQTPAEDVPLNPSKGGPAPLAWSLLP

In a further assay the target is Pim-3 (Homo sapiens (Human), UniProt Q86V86). In words: Pim-3 kinase assay. Particulars: 1 mM ATP, biotin-labeled BAD peptide substrate; read-out: Pim3 IC50. In short, it runs like this:
as §1

Some results are limits rather than exact numbers.

Sequence of Pim-1 (P11309 whole entry): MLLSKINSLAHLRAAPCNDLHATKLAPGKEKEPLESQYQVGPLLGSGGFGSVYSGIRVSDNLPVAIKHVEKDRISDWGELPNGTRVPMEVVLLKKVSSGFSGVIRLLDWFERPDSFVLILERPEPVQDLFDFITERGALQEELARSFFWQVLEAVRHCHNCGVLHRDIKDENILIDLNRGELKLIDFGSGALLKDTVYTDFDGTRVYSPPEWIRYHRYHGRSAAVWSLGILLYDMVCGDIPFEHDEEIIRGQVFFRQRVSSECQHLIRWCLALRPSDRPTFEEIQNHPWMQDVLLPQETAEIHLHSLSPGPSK

As to `CCc1cnc2c(C(=O)Nc3cnccc3N3C[C@@H](N)C[C@@H](C(F)(F)F)C3)c(N)oc2c1` [Example 118, 2-Amino-N-{4-[(3S,5R)-3-amino-5-(trifluoromethyl)piperidin-1-yl]pyridin-3-yl}-6-ethylfuro[3,2-b]pyridine-3-carboxamide], the IC50 at Pim-1, at Pim-2 and at Pim-3 was at most 10 nM each time.
In the case of `Nc1oc2cc(C(F)(F)F)cnc2c1C(=O)Nc1cnccc1N1C[C@@H](N)[C@H](O)[C@@H](C2CC2)C1` [Example 129, 2-Amino-N-(4-((3R,4R,5S)-3-amino-5-cyclopropyl-4-hydroxypiperidin-1-yl)pyridin-3-yl)-6-(trifluoromethyl)furo[3,2-b]pyridine-3-carboxamide], the 50% inhibitory concentration (IC50) at Pim-1 is at most 10 nM; on Pim-2 it was 10 to 100 nM; on Pim-3, at most 10 nM.
As to `Cn1ncc(NC(=O)c2c(N)oc3cccnc23)c1N1CCCC(N)CC1` (stereo not drawn) [Example 46, 2-Amino-N-[5-(4-aminoazepan-1-yl)-1-methyl-1H-pyrazol-4-yl]furo[3,2-b]pyridine-3-carboxamide], the figures for the IC50 on Pim-1, at Pim-2 and at Pim-3 were at most 10 nM, over 2000 nM and 10 to 100 nM, respectively.
As for `C[C@@H]1C[C@H](N)CN(c2ccncc2NC(=O)c2c(N)oc3cc(-c4c(F)cccc4F)cnc23)C1` [Example 119, 2-Amino-N-{4-[(3S,5R)-3-amino-5-methylpiperidin-1-yl]pyridin-3-yl}-6-(2,6-difluorophenyl)furo[3,2-b]pyridine-3-carboxamide], the figures for the IC50 at Pim-1, on Pim-2 and on Pim-3 were at most 10 nM, 10 to 100 nM and at most 10 nM, respectively.
In the case of `Cn1ncc(NC(=O)c2c(N)sc3cccnc23)c1-c1ccc2c(c1)C(N)CC2` (stereo not drawn) [Example 5, 2-Amino-N-[5-(3-amino-2,3-dihydro-1H-inden-5-yl)-1-methyl-1H-pyrazol-4-yl]thieno[3,2-b]pyridine-3-carboxamide], the 50% inhibitory concentration (IC50) at Pim-1 is at most 10 nM; on Pim-2 it was 100 to 1000 nM; on Pim-3, at most 10 nM.
With `C[C@H]1C[C@@H](c2ccncc2NC(=O)c2c(N)oc3cccnc23)C[C@@H](N)[C@]1(C)O` [Example 83, 2-Amino-N-(4-((1R,3R,4R,5S)-3-amino-4-hydroxy-4,5-dimethylcyclohexyl)pyridin-3-yl)furo[3,2-b]pyridine-3-carboxamide], the IC50 is at most 10 nM on Pim-1, 100 to 1000 nM at Pim-2 and at most 10 nM on Pim-3.
Take `Nc1sc2ccc(Cl)nc2c1C(=O)Nc1cnccc1N1CCC[C@H](N)C1` (stereo in doubt) [Example 40, 2-Amino-N-[4-(3-aminopiperidin-1-yl)pyridin-3-yl]-5-chlorothieno[3,2-b]pyridine-3-carboxamide]: the IC50 on Pim-1 was at most 10 nM; on Pim-2, over 2000 nM; at Pim-3, 10 to 100 nM.
The matching figures for `Cc1noc(C)c1-c1cnc2c(C(=O)Nc3cnn(C)c3N3CCCC(N)CC3)c(N)sc2c1` (stereo not drawn) [Example 29, 2-Amino-N-[5-(4-aminoazepan-1-yl)-1-methyl-1H-pyrazol-4-yl]-6-(3,5-dimethylisoxazol-4-yl)-thieno[3,2-b]pyridine-3-carboxamide]: at most 10 nM, 100 to 1000 nM and at most 10 nM.
In the same order, the values of `C[C@H]1CN(c2ccncc2NC(=O)c2c(N)oc3cccnc23)C[C@@H](N)[C@@H]1O` [Example 74, 2-Amino-N-{4-[(3R,4R,5S)-3-amino-4-hydroxy-5-methylpiperidin-1-yl]pyridin-3-yl}-furo[3,2-b]pyridine-3-carboxamide] are at most 10 nM, 10 to 100 nM and at most 10 nM.
The matching figures for `Cc1cnc2c(C(=O)Nc3cnccc3N3CCC[C@H](N)C3)c(N)oc2c1` [Example 49, 2-amino-N-{4-[(3S)-3-aminopiperidin-1-yl]pyridin-3-yl}-6-methyl-furo[3,2-b]pyridine-3-carboxamide]: at most 10 nM, 10 to 100 nM and at most 10 nM.
On to `Cn1ncc(NC(=O)c2c(N)oc3cc(C(F)(F)F)cnc23)c1N1CCCC(N)CC1` (stereo not drawn) [Example 56, 2-amino-N-[5-(4-aminoazepan-1-yl)-1-methyl-1H-pyrazol-4-yl]-6-trifluoromethyl-furo[3,2-b]pyridine-3-carboxamide], for which the IC50 was at most 10 nM at Pim-1, 10 to 100 nM on Pim-2 and at most 10 nM on Pim-3.
With `CCc1cnc2c(C(=O)Nc3cnccc3N3CCC[C@H](N)C3)c(N)sc2c1` [Example 22, 2-Amino-N-{4-[(3S)-3-aminopiperidin-1-yl]pyridin-3-yl}-6-ethylthieno[3,2-b]pyridine-3-carboxamide], the IC50 was at most 10 nM at Pim-1, 10 to 100 nM on Pim-2 and at most 10 nM on Pim-3.
Regarding `Cc1cncc(NC(=O)c2c(N)oc3cccnc23)c1N1CC[C@H](N)C1` [Example 64, 2-amino-N-{4-[(3S)-3-aminopyrrolidin-1-yl]-5-methylpyridin-3-yl}furo[3,2-b]pyridine-3-carboxamide], the IC50 on Pim-1 was at most 10 nM; on Pim-2, 100 to 2000 nM; at Pim-3, at most 10 nM.
Take `CCCc1cnc2c(C(=O)Nc3cnccc3N3C[C@H](C)C[C@H](N)C3)c(N)oc2c1` [Example 70, 2-Amino-N-{4-[(3S,5R)-3-amino-5-methyl-piperidin-1-yl]pyridin-3-yl}-6-propylfuro[3,2-b]pyridine-3-carboxamide]: the IC50 on Pim-1 was at most 10 nM; on Pim-2, 10 to 100 nM; on Pim-3 it was at most 10 nM.
`C[C@@H]1C[C@H](N)CN(c2ccncc2NC(=O)c2c(N)oc3cc(C4CCC4)cnc23)C1` [Example 97, 2-Amino-N-{4-[(3S,5R)-3-amino-5-methylpiperidin-1-yl]pyridin-3-yl}-6-cyclobutylfuro[3,2-b]pyridine-3-carboxamide]: the IC50 at Pim-1, on Pim-2 and at Pim-3 was at most 10 nM in each case.
For the molecule `Cn1ncc(NC(=O)c2c(N)sc3ccc(-c4ccccc4)nc23)c1N1CCCC(N)CC1` (stereo not drawn) [Example 44, 2-Amino-N-[5-(4-aminoazepan-1-yl)-1-methyl-1H-pyrazol-4-yl]-5-phenylthieno[3,2-b]pyridine-3-carboxamide], the IC50 at Pim-1 is at most 10 nM; on Pim-2, over 2000 nM; at Pim-3, at most 10 nM.
With `Cn1ncc(NC(=O)c2c(N)oc3cc(C4CCOCC4)cnc23)c1N1C[C@@H](N)C[C@@H](C(F)(F)F)C1` [Example 90, 2-Amino-N-{5-[(3S,5R)-3-amino-5-(trifluoromethyl)piperidin-1-yl]-1-methyl-1H-pyrazol-4-yl}-6-(tetrahydro-2H-pyran-4-yl)furo[3,2-b]pyridine-3-carboxamide], the IC50 at Pim-1 was at most 10 nM; on Pim-2, 10 to 100 nM; at Pim-3 it was at most 10 nM.
In the case of `Nc1oc2cc(C(F)(F)F)cnc2c1C(=O)Nc1cnccc1N1C[C@@H](N)C[C@@H](C(F)(F)F)C1` [Example 61, 2-amino-N-{4-[(3S,5R)-3-amino-5-(trifluoromethyl)piperidin-1-yl]pyridin-3-yl}-6-trifluoromethyl-furo[3,2-b]pyridine-3-carboxamide], the half-maximal inhibitory concentration (IC50) on Pim-1 is at most 10 nM; at Pim-2 it was 10 to 100 nM; on Pim-3, at most 10 nM.
As for `Cn1ncc(NC(=O)c2c(N)sc3cc(-c4nccs4)cnc23)c1N1CCCC(N)CC1` (stereo not drawn) [Example 30, 2-Amino-N-[5-(4-aminoazepan-1-yl)-1-methyl-1H-pyrazol-4-yl]-6-(1,3-thiazol-2-yl)-thieno[3,2-b]pyridine-3-carboxamide], the IC50 was at most 10 nM at Pim-1, 10 to 100 nM on Pim-2 and at most 10 nM on Pim-3.
As for `Nc1oc2cc(C3CCOC3)cnc2c1C(=O)Nc1cnccc1N1C[C@@H](N)C[C@@H](C(F)(F)F)C1` (stereo partly drawn) [Example 123, 2-Amino-N-{4-[(3S,5R)-3-amino-5-(trifluoromethyl)piperidin-1-yl]pyridin-3-yl}-6-(tetrahydrofuran-3-yl)furo[3,2-b]pyridine-3-carboxamide], the IC50 on Pim-1, at Pim-2 and at Pim-3 was at most 10 nM in each case.
For `CCCc1cnc2c(C(=O)Nc3cnccc3N3C[C@@H](N)[C@H](O)[C@@H](C)C3)c(N)sc2c1` [Example 140, 2-Amino-N-(4-((3R,4R,5S)-3-amino-4-hydroxy-5-methylpiperidin-1-yl)pyridin-3-yl)-6-propylthieno[3,2-b]pyridine-3-carboxamide], the half-maximal inhibitory concentration (IC50) on Pim-1, on Pim-2 and on Pim-3 was at most 10 nM in each case.
Turning to `CC(C)c1cnc2c(C(=O)Nc3cnccc3[C@@H]3C[C@H](C)C[C@H](N)C3)c(N)oc2c1` [Example 130, 2-Amino-N-{4-[(1R,3S,5S)-3-amino-5-methylcyclohexyl]pyridin-3-yl}-6-isopropylfuro[3,2-b]pyridine-3-carboxamide], the IC50 on Pim-1, on Pim-2 and on Pim-3 was at most 10 nM throughout.
As to `CCCc1cnc2c(C(=O)Nc3cnn(C)c3N3CCCC(N)CC3)c(N)oc2c1` (stereo not drawn) [Example 59, 2-amino-N-[5-(4-aminoazepan-1-yl)-1-methyl-1H-pyrazol-4-yl]-6-propylfuro[3,2-b]pyridine-3-carboxamide], the IC50 on Pim-1 was at most 10 nM; on Pim-2 it was 10 to 100 nM; on Pim-3 it was at most 10 nM.
Take `Nc1oc2cc(Br)cnc2c1C(=O)Nc1cnccc1N1CCC[C@H](N)C1` [Example 54, 2-amino-N-{4-[(3S)-3-aminopiperidin-1-yl]pyridin-3-yl}-6-bromo-furo[3,2-b]pyridine-3-carboxamide]: the IC50 on Pim-1 was at most 10 nM; at Pim-2, 10 to 100 nM; on Pim-3, at most 10 nM.

(Values after patent US10000507B2, “Furo- and thieno-pyridine carboxamide compounds useful as pim kinase inhibitors” (Incyte Corporation, priority 2013, dated 2018).)
